# Experimental data published in patent publication US8044071B2, “Method for reducing side effects of CB2 receptor agonist therapy using a combination of a selective CB2 receptor agonist and a selective CB1 receptor antagonist” (Abbott Laboratories, priority 2007, dated 2011).
# System: skin incision model of postoperative pain
# Assay: Skin incision model of postoperative pain (tactile allodynia, von Frey)
# Assay type: in vivo
# Details: rat, rimonabant 30 μmol/kg i.p., vehicle 15 min later
# Source text: Adult male Sprague-Dawley rats (250-300 g body weight, Charles River Laboratories, Portage, Mich.) were used. Animal handling and experimental protocols were approved by the Institutional Animal Care and Use Committee (IACUC) at Abbott Laboratories. For all surgical procedures, animals were maintained under halothane anesthesia (4% to induce, 2% to maintain), and the incision sites were sterilized using a 10% povidone-iodine solution prior to and after surgeries.
# A skin incision model of postoperative pain was produced using the procedures described in Brennan et al., 1996, Pain, 64, 493. All rats were anesthetized with isoflurane delivered via a nose cone. Right hind paw incision was performed following sterilization procedures. The plantar aspect of the […] hind paw was placed through a hole in a sterile plastic drape. A 1-cm longitudinal incision was made through the skin and fascia of the plantar aspect of the hind paw, starting 0.5 cm from the proximal edge of the heel and extending towards the toes, the plantar muscle was elevated and incised longitudinally leaving the muscle origin and insertion points intact. The skin was then closed with two mattress sutures (5-0 nylon). After surgery, animals were then allowed to recover for 2 hours, at which time tactile allodynia was assessed as described below. To evaluate the anti-nociceptive effects, animals were i.p. administered vehicle or test compound 90 minutes following skin incision and tactile allodynia was typically assessed 30 minutes after compound administration.
# Tactile allodynia was measured using calibrated von Frey filaments (Stoelting, Wood Dale, Ill.) as described in Chaplan, S. R., F. W. Bach, J. W. Porgrel, J. M. Chung and T. L. Yaksh, 1994, Quantitative assessment of tactile allodynia in the rat paw, J. Neurosci. Methods, 53, 55. Rats were placed into inverted individual plastic cage (20×12.5×20 cm) on top of a suspended wire mesh grid, and acclimated to the test chambers for 20 minutes. The von Frey filaments were applied perpendicularly from underneath the cage through openings in the wire mesh floor directly to an area within 1-3 mm (immediately adjacent) of the incision, and then held in this position for approximately 8 seconds with enough force to cause a slight bend in the filament. Positive responses included an abrupt withdrawal of the hind paw from the stimulus, or flinching behavior immediately following removal of the stimulus. A 50% withdrawal threshold was determined using an up-down procedure as described in Dixon, W. J., 1980, Efficient analysis of experimental observations, Ann. Rev. Pharmacol. Toxicol., 20, 441. The effect on paw withdrawal latency of test compounds compared to vehicle control represents the ability of the test compound to reduce allodynia. An increase in the paw withdrawal latency represents an anti-allodynic effect (i.e., a decrease in pain).
# Using the skin incisional model of postoperative pain, the effects of compound A, CB2 agonist (Z)—N-(5-tert-butyl-3-butylthiazol-2(3H)-ylidene)-5-chloro-2-methoxybenzamide, on allodynia was assessed two hours after surgery.
# Using the skin incisional model of postoperative pain, the effects of CB2 agonist A were evaluated after the administration of vehicle or the CB1 antagonist rimonabant. This effect was compared with the administration of vehicle after the administration of vehicle or the CB1 antagonist rimonabant. A first dose, consisting of CB1 antagonist rimonabant (30 μmol/kg i.p.) or a vehicle (5% DMSO/PEG), was administered 15 minutes before a second dose, consisting of administration of CB2 agonist A (30 μmol/kg i.p.) or vehicle. Allodynia testing was conducted 30 minutes after administration of the second dose, either CB2 agonist A or vehicle.
compound,measurement,value
"Cc1c(C(=O)NN2CCCCC2)nn(-c2ccc(Cl)cc2Cl)c1-c1ccc(Cl)cc1 [rimonabant, 5-(4-chlorophenyl)-1-(2,4-dichlorophenyl)-4-methyl-N-(piperidin-1-yl)-1H-pyrazole-3-carboxamide, reference compound]","tactile allodynia, rimonabant followed by vehicle",did not ameliorate the tactile allodynia
